Results from ChEMBL document CHEMBL3045185, “Characterization of metabolites of fungicidal cymoxanil in a sensitive strain of Botrytis cinerea” (J Agric Food Chem, 2008).
Values after ≈ are worked out from the molar mass of the structure shown.

Experiments:
Botrytis cinerea = test: Fungicidal activity against drug sensitive Botryotinia fuckeliana assessed as inhibition of germ tube elongation; type: functional, organism-based
[1] = Half life in drug sensitive Botryotinia fuckeliana cultures; conditions: botrytis cinerea, in vivo
[2] = Half life in soil assessed as compound degradation through hydrolysis and microbial degradation
[3] = Botrytis cinerea, read-out: EC50

SMILES | EC50 (Botrytis cinerea; [3]) [µg/mL] | EC50 (Botrytis cinerea) | half-life [1] [h] | half-life [2] [h]
CC(=O)NC(C#N)C(=O)O (configuration not stated) | 0.025 (≈ 0.176 µM) | – | – | –
CCNC(=O)N1C(=O)C(C#N)=NC1(C)C | – | Not Active | – | –
CCN1C(=O)NC(=O)C1=O | – | Not Active | – | –
CCN1C(=O)NC(=O)/C1=N/OC | – | Not Active | – | –
CCNC(=O)NC(=O)/C(C#N)=N/OC [CYMOXANIL] | 0.25 (≈ 1.26 µM) | – | ≤ 2 | < 48
